The text below walks through data of publication PMC7269146, “Jingzhaotoxin-X, a gating modifier of Kv4.2 and Kv4.3 potassium channels purified from the venom of the Chinese tarantula Chilobrachys jingzhao” (The Journal of Venomous Animals and Toxins Including …, 2020).

In assay [1] the target is T1, Kv4.2 (Rattus norvegicus, UniProt Q63881).
T1 construct: expressed in transfected cells; host or cells: HEK293t
T1 sequence (Q63881 1-630): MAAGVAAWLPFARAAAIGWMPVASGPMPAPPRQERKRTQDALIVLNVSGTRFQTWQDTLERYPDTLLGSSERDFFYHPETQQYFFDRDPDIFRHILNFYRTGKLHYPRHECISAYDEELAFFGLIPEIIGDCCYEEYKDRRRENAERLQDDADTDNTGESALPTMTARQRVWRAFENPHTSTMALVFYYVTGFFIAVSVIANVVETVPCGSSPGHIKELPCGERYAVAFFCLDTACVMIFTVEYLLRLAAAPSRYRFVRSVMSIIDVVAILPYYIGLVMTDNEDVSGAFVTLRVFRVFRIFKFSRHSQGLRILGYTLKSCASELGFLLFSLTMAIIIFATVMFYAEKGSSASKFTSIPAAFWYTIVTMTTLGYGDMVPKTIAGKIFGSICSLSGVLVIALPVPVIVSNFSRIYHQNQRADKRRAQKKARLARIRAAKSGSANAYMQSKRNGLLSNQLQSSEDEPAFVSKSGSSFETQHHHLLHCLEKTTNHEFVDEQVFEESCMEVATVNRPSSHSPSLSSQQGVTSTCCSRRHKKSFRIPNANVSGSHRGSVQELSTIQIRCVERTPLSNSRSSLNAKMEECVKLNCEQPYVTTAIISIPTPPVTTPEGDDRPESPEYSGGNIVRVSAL
Put plainly: triple-pulse protocol, toxin dissociation by strong depolarization, Kv4.2 in HEK 293T cells. The class given is cell-based. As to conditions: 500 nM; for inhibition at 0.5 µM: HEK-293T. An excerpt: (§1) Rat cDNA genes encoding Kv4.2 (Accession: NM_031730.2) and Kv4.3 (Accession: AB003587.1) were subcloned to vector pcDNA3.1. In addition, human cDNA genes encoding Nav1.7 (Accession: DQ857292.1) and Nav1.5 (Accession: AB158469.2) were subcloned to vectors pcDNA3.1-mod and pcDNA3.1, separately. Then, Kv4.2, Kv4.3, Nav1.5 and Nav1.7 constructs were transiently transfected into the human embryonic kidney 293t (HEK293t) cells using lipofectamine 2000 (Invitrogen, USA) in accordance with manufacturer protocols. Thereafter, HEK293 cells were inoculated within Dulbecco’s modified Eagle’s medium (DMEM) containing 10% fetal bovine serum (FBS) at 5% CO2 and 37°C. The Kv4.3 channel and the Kv4.2 counterpart were then transfected in the absence of β subunit. Subsequently, cells were incubated with a DNA-lipofectamine mixture (one reporter plasmid for green fluorescence protein and channel constructs) for 4-6 h, and were washed with the fresh medium.
(§2) An EPC-10 patch-clamp amplifier (HEKA, Germany) was employed to record the potassium currents at the configuration of whole-cell patch-clamp under an ambient temperature of 22-25°C. The resistance was 2.0-3.0 MΩ when the recording pipette contained a full volume of internal solution (supplemented with 140 mM KCl, 10 mM HEPES, 2.5 mM MgCl2, 5 mM ATP and 11 mM EGTA). KOH was utilized to adjust the pH to 7.2, while sucrose was employed to adjust the osmolarity to 310 mOsm/L. The culture medium was replaced with an external solution containing 150 mM NaCl, 2.5 mM CaCl2, 10 mM HEPES, 2 mM MgCl2, 5 mM KCl, and 10 mM D-glucose. Similarly, sucrose and NaOH were applied to adjust the osmolarity to 330 mOsm/L and pH to 7.4. […] The series resistance was maintained at about 5 MΩ, with 65-70% compensation. Finally, the leakage currents and linear capacitance were subtracted digitally according to the P/4 protocol.
Subsequently, we examined whether strong depolarization induced toxin dissociation from potassium channels. To address this question, the triple-pulse protocol was utilized, which used the test pulse of +20 mV after potent depolarization (+130 mV) to measure the available Kv4.2 currents (Fig. 6, inset). […] Furthermore, this toxin also affected the amplitude of outward Kv4.2 currents (46.3 ± 5.6%) by the second pulse (+130 mV). Typically, the amplitude of current acquired was nearly the same as that in controls induced by a third pulse (+20 mV), since the inhibition was only 17.5 ± 3.9% (Fig. 6, n = 7).
Figure 6. Potent depolarization dissociated the toxin-channel complex. The 300 ms test pulse at the voltage of +20 mV was utilized to induce the current traces. Prior to the application of test pulse, cells held at the voltage of -80 mV depolarized for 500 ms at the conditioning pulse of +130 mV and the holding potential of 50 ms (see inset). Following 500 nM JZTX-X perfusion, the test pulse-elicited current amplitude was nearly identical to the control after the 500 ms conditioning pulse.

The target of assay [2] is T1, Kv4.2. The experiment in a line: whole-cell patch-clamp, Kv4.2 in HEK293t cells, concentration-response and time course. The class given is cell-based.
Source text: as §1
as §2, with “protocol. […]” for “protocol.”
On-rates were determined by fitting time course data with a single exponential decay function (2): y = Ae^-kx + C, where x is the time, A is the normalized current value before the application of toxin (usually 1.0), and C is the final normalized current value following the block by the toxin. The on-rate (τon) was determined from the inverse of the rate constant k.
Off-rates were determined by fitting time course data with a double exponential association function (3): y = A(1-e^-kx) + B(1-e^-fx) + C, where x is the time, A or B is the normalized current value after washout of the toxin (usually 1.0 if complete washout occurred), and C is the normalized current value before the washout of the toxin. The off-rate (τoff) was determined from the inverse of the rate constant k or f.
For orientation: In patch-clamp work, channel activity is measured electrically.

Like-named read-outs stand apart in the source and are kept apart here. Where a SMILES comes first, the peptide text is derived from it. Bridges are numbered along the chain shown (N, C = ends). Bounds are passed on as bounds.

As a reminder, the inhibition is how much of the control response was suppressed. In general, IC50 refers to the concentration needed to halve the response being measured.

Consider `CC(C)C[C@@H]1NC(=O)[C@H](CCCCN)NC(=O)[C@H](Cc2ccc(O)cc2)NC(=O)[C@@H]2CSSC[C@@H]3NC(=O)[C@H](Cc4ccc(O)cc4)NC(=O)[C@H](Cc4ccccc4)NC(=O)CNC(=O)[C@H](C)NC(=O)[C@H](CSSC[C@H](NC(=O)[C@@H](N)CC(C)C)C(=O)N[C@@H](CO)C(=O)N[C@@H](CCCNC(=N)N)C(=O)N[C@@H](CCC(=O)O)C(=O)NCC(=O)N[C@@H](CCC(=O)O)C(=O)N[C@@H](Cc4ccccc4)C(=O)N2)NC(=O)[C@H](CSSC[C@@H](C(=O)N[C@@H](Cc2ccc(O)cc2)C(=O)N[C@@H](CCCNC(=N)N)C(=O)N[C@@H](CC(N)=O)C(=O)O)NC(=O)[C@H](Cc2c[nH]cn2)NC(=O)[C@H](CC(C)C)NC(=O)[C@H](C(C)C)NC(=O)[C@H](Cc2ccccc2)NC(=O)[C@H](C)NC(=O)[C@H](CCCCN)NC3=O)NC(=O)[C@H](CCCCN)NC(=O)[C@H](CCCNC(=N)N)NC1=O` [JZTX-X, Jingzhaotoxin-X] (H-LCSREGEFCYKLRKCCAGFYCKAFVLHCYRN-OH; disulfide 2-16, 9-21, 15-28; N-terminus assumed), for which the “inhibition of Kv4.2 outward current, second pulse (+130 mV)” value at Kv4.2 [1] (500 ms conditioning pulse, n = 7, 0.5 µM) is on record as ~ 46%. At Kv4.2 [1] (holding -80 mV, n = 7, 0.5 µM), the “inhibition of Kv4.2 current, first pulse (+20 mV)” value was ~ 93%. Further, the inhibition at 0.5 µM was determined as 46.3 ± 5.6% on Kv4.2 [1] (500 ms conditioning pulse, n = 7, read-out: inhibition of Kv4.2 outward current, second pulse (+130 mV)); 17.5 ± 3.9% on Kv4.2 [1] (after +130 mV conditioning pulse, n = 7, read-out: inhibition of Kv4.2 current, third pulse (+20 mV)); 92.6 ± 3.2% at Kv4.2 [1] (holding -80 mV, n = 7, read-out: inhibition of Kv4.2 current, first pulse (+20 mV)). Besides, the “inhibition of Kv4.2 at resting potential without pulses” value at Kv4.2 [2] (-80 mV, no pulse during first ~100 s of treatment with 200 nM or 500 nM (order Kv4.2, Kv4.3), same as with pulses at 5 s intervals, n = 5) is recorded as “approximately 95%”. On Kv4.2 [2] (HEK293t cells, 1 nM-10 μM, 300-ms step to +20 mV from -80 mV, 22-25°C, pH 7.4, Hill equation fit, n = 7, read-out: IC50 for Kv4.2 channels), the IC50 came to 68 nM. For the same compound, on Kv4.2 [2] (HEK293t cells, +20 mV from -80 mV, n = 7), the “Hill Coefficient, Kv4.2” value is given as 0.91. Further, the “reversal of Kv4.2 inhibition after rinsing” value at Kv4.2 [2] (in 3 min following rinsing, high JZTX-X dose, HEK293t cells, n = 6) is more than 95%.
